The results in this text go back to publication PMC3953731 (FEBS Open Bio, 2014).

One data set deals with Ima2p (Saccharomyces cerevisiae, UniProt Q08295). Kind of data set: Substrate specificity of purified isomaltase. To be noted: 100 mM substrate (pNPG 5 mM), pH 7, 30 °C; for Specific activities: citrate–potassium phosphate buffer. Type of data set: biochemical.
A further data set addresses Ima1p (Saccharomyces cerevisiae, UniProt P53051). Kind of data set: Substrate specificity of purified isomaltase. Type of data set: biochemical. To be noted: 100 mM substrate (pNPG 5 mM), pH 7, 30 °C; for Specific activities: citrate–potassium phosphate buffer.
Another data set deals with T1, Ima5p (Saccharomyces cerevisiae, UniProt P40884).
T1 sequence (P40884 1-581): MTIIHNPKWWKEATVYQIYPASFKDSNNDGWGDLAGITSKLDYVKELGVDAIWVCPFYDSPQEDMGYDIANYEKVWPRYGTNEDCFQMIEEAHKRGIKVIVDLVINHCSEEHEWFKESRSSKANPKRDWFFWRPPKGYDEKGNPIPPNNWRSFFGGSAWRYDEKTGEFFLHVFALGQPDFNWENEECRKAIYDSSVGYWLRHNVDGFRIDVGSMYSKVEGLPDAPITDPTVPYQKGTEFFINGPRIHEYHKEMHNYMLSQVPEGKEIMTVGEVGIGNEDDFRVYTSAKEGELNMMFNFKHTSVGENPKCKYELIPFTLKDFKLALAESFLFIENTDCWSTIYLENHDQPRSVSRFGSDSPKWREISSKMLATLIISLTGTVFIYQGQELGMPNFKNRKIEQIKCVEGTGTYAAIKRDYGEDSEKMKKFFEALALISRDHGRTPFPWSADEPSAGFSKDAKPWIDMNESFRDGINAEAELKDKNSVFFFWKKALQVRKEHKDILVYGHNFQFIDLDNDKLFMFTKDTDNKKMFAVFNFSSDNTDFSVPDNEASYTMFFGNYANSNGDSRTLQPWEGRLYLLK
Briefly: Substrate specificity of purified isomaltase. Type of data set: biochemical. The conditions noted are these: 100 mM substrate (pNPG 5 mM), pH 7, 30 °C; for Specific activities: citrate–potassium phosphate buffer.

The target in another data set is Ima3p (Saccharomyces cerevisiae, UniProt P0CW40). Kind of data set: Substrate specificity of purified isomaltase. The conditions noted are these: 100 mM substrate (pNPG 5 mM), pH 7, 30 °C; for Specific activities: citrate–potassium phosphate buffer. It counts as biochemical.
Chain of Ima3p (P0CW40 whole entry): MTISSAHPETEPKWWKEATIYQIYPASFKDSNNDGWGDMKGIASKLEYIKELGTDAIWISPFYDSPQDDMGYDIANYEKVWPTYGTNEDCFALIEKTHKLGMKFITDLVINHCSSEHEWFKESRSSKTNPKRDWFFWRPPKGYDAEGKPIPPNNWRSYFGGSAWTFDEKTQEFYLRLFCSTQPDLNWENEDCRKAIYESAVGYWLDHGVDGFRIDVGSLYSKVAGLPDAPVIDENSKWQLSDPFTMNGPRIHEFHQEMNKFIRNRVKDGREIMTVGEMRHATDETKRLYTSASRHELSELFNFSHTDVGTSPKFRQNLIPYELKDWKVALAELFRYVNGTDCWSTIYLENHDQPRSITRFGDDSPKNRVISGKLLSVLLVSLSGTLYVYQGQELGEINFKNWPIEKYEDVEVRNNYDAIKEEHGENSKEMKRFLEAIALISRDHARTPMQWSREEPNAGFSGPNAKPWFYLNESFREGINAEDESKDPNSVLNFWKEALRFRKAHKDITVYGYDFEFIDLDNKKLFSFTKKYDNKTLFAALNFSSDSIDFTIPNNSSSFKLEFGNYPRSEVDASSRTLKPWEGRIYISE
A short description of data set [1]: Melting temperature by differential scanning fluorimetry. Type of data set: physicochemical, Saccharomyces cerevisiae. The conditions noted are these: for Tm: mean ± 2 SEM; for decrease of Tm on increase by one pH unit (pH 8): pH 7 to pH 8. In general terms: In DSF a fluorescence change marks the thermal transition of the protein.
The nature of data set [2]: Thermostability assay: time-dependent heat inactivation, half-life. Type of data set: biochemical, Saccharomyces cerevisiae. To be noted: pNPG 5 mM, mean ± 2 SEM.

Where “and” joins values, the source holds several entries; their conditions need not be identical. Equal values may be shown once.

Chain of Ima1p (P53051 whole entry): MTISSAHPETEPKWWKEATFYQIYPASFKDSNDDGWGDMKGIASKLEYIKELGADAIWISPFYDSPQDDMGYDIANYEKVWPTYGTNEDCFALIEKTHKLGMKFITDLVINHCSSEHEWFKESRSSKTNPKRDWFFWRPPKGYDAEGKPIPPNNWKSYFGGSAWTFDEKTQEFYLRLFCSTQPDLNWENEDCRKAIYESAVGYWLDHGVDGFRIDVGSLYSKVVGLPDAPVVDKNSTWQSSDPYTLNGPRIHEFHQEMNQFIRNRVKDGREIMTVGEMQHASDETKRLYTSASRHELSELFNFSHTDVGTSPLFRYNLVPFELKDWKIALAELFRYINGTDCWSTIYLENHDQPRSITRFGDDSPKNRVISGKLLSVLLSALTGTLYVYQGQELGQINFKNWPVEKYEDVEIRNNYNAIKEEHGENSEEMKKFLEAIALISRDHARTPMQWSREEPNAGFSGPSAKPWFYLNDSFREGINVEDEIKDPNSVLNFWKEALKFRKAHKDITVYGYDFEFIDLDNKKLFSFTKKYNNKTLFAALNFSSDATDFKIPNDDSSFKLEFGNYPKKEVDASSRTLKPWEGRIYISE

Take `OC[C@H]1O[C@H](O[C@@H]2[C@@H](O)[C@H](O)[C@@H](CO)O[C@@H]2O)[C@H](O)[C@@H](O)[C@@H]1O` [Kojibiose, O-α-D-Glucosyl-(1→2)-α-D-glucose]: the Specific activities turned out to be 6.9 µmol/min/mg on Ima2p, 7.7 µmol/min/mg at Ima1p, 2.5 µmol/min/mg on Ima5p and 0 µmol/min/mg at Ima3p. Further, the “relative activity, velocity on isomaltose set to 100” value (shortened to “relative activity, velocity”) is 13% on Ima2p, 13% at Ima1p and 4% on Ima5p.
Turning to `OC[C@H]1O[C@H](O[C@H]2[C@H](O)[C@@H](O)[C@@H](O[C@H]3[C@H](O)[C@@H](O)C(O)O[C@@H]3CO)O[C@@H]2CO)[C@H](O)[C@@H](O)[C@@H]1O` (stereo partly drawn) [Maltotriose, O-α-D-Glucosyl-(1→4)-α-D-glucosyl-(1→4)-D-glucose], the Specific activities on Ima2p turned out to be 3.4 µmol/min/mg; on Ima1p, 3.5 µmol/min/mg; at Ima5p it was 3.4 µmol/min/mg; on Ima3p it was 0 µmol/min/mg. Besides, the “relative activity, velocity” value is on record as 6% on Ima2p; “approx. 5%” at Ima2p (listed as maltotriose); 6% at Ima1p; “approx. 5%” at Ima1p (listed as maltotriose); 5% on Ima5p; “approx. 5%” at Ima5p (listed as maltotriose).
For the molecule `OC[C@H]1O[C@H](O[C@@H]2[C@@H](CO)OC(O)(CO)[C@H]2O)[C@H](O)[C@@H](O)[C@@H]1O` (stereo partly drawn) [Maltulose, O-α-D-Glucosyl-(1→4)-D-fructose], the Specific activities at Ima2p came out at 0.53 µmol/min/mg; on Ima1p it was 0 µmol/min/mg; on Ima5p, 0.36 µmol/min/mg; at Ima3p, 0 µmol/min/mg. In addition, the “relative activity, velocity” value at Ima2p and on Ima5p was 1% throughout.
For `OC[C@H]1O[C@@](CO)(O[C@H]2O[C@H](CO)[C@@H](O)[C@H](O)[C@H]2O)[C@@H](O[C@H]2O[C@H](CO)[C@@H](O)[C@H](O)[C@H]2O)[C@@H]1O` [Melezitose, O-α-D-Glucosyl-(1→3)-β-D-fructosyl-(2→1)-D-glucose], the Specific activities at Ima2p, on Ima1p, at Ima5p and on Ima3p was 0 µmol/min/mg throughout.
Take `OC[C@H]1O[C@H](O[C@@H]2[C@@H](O)[C@@H](O)O[C@H](CO)[C@H]2O)[C@H](O)[C@@H](O)[C@@H]1O` [Nigerose, O-α-D-Glucosyl-(1→3)-α-D-glucose]: the Specific activities was 6.8 µmol/min/mg on Ima2p, 6.5 µmol/min/mg on Ima1p, 4.2 µmol/min/mg on Ima5p and 2.5 µmol/min/mg on Ima3p. The “relative activity, velocity” value at Ima2p is reported as 13%; at Ima1p it was 11%; on Ima5p, 6%; on Ima3p, 35%.
`OC[C@H]1O[C@H](O[C@H]2O[C@H](CO)[C@@H](O)[C@H](O)[C@H]2O)[C@H](O)[C@@H](O)[C@@H]1O` [Trehalose, O-α-D-Glucosyl-(1→1)-α-D-glucose]: the Specific activities at Ima2p, at Ima1p, at Ima5p and at Ima3p was 0 µmol/min/mg throughout.
Take `O=C(CO)[C@@H](O[C@H]1O[C@H](CO)[C@@H](O)[C@H](O)[C@H]1O)[C@H](O)[C@H](O)CO` [Turanose, O-α-D-Glucosyl-(1→3)-D-fructose]: the Specific activities was determined as 3.5 µmol/min/mg on Ima2p, 4.3 µmol/min/mg on Ima1p, 1.2 µmol/min/mg on Ima5p and 1.8 µmol/min/mg at Ima3p. In addition, the “relative activity, velocity” value on Ima2p is given as 6%; on Ima1p it was 7%; on Ima5p, 2%; at Ima3p, 25%.

B1: Ima2p: isomaltase from S. cerevisiae encoded by IMA2/YOL157C, His-tagged, purified (protein, UniProt Q08295 1-589, looked up)
Oligo-1,6-glucosidase IMA2: MTISSAHPETEPKWWKEATIYQIYPASFKDSNNDGWGDMKGIASKLEYIKELGADAIWISPFYDSPQDDMGYDIANYEKVWPTYGTNEDCFALIEKTHKLGMKFITDLVINHCSSEHEWFKESRSSKTNPKRDWFFWRPPKGYDAEGKPIPPNNWRSYFGGSAWTFDEKTQEFYLRLFCSTQPDLNWENEDCRKAIYESAVGYWLDHGVDGFRIDVGSLYSKVAGLPDAPVIDENSKWQPSDPFTMNGPRIHEFHQEMNKFIRNRVKDGREIMTVGEMQHATDETKRLYTSASRHELSELFNFSHTDVGTSPKFRQNLIPYELKDWKVALAELFRYVNGTDCWSTIYLENHDQPRSITRFGDDSPKNRVISGKLLSVLLVSLSGTLYVYQGQELGEINFKNWPIEKYEDVEVRNNYDAIKEEHGENSKEMKRFLEAIALISRDHARTPMQWSREEPNAGFSGPNAKPWFYLNESFREGINAEDESKDPNSVLNFWKEALRFRKAHKDITVYGYDFEFIDLDNKKLFSFTKKYDNKTLFAALNFSSDSIDFTIPNNSSSFKLEFGNYPRSEVDASSRTLKPWEGRIYISE
modifications: His tag
For orientation: Tm means the temperature at the midpoint of the melting transition. On to B1, for which the melting temperature (Tm) in data set [1] (pH 6, DSF) was determined as 55.1 ± 0.2 °C; in data set [1] (pH 7, DSF), 46.2 ± 0.8 °C; in data set [1] (pH 8, DSF), 33.2 ± 0.6 °C. Besides, the “decrease of Tm on increase by one pH unit (pH 8)” value in data set [1] was 13 °C. Also, the t1/2 in data set [2] (37 °C) turned out to be 27.4 ± 1.6 min; in data set [2] (40 °C), 18.5 ± 1.6 min; in data set [2] (42 °C) it was 11.2 ± 0.7 min.

B2: Ima3p_L240P: Ima3p variant with L240P mutation (protein, UniProt P0CW40 1-589, looked up, variant L240P)
Oligo-1,6-glucosidase IMA3: MTISSAHPETEPKWWKEATIYQIYPASFKDSNNDGWGDMKGIASKLEYIKELGTDAIWISPFYDSPQDDMGYDIANYEKVWPTYGTNEDCFALIEKTHKLGMKFITDLVINHCSSEHEWFKESRSSKTNPKRDWFFWRPPKGYDAEGKPIPPNNWRSYFGGSAWTFDEKTQEFYLRLFCSTQPDLNWENEDCRKAIYESAVGYWLDHGVDGFRIDVGSLYSKVAGLPDAPVIDENSKWQPSDPFTMNGPRIHEFHQEMNKFIRNRVKDGREIMTVGEMRHATDETKRLYTSASRHELSELFNFSHTDVGTSPKFRQNLIPYELKDWKVALAELFRYVNGTDCWSTIYLENHDQPRSITRFGDDSPKNRVISGKLLSVLLVSLSGTLYVYQGQELGEINFKNWPIEKYEDVEVRNNYDAIKEEHGENSKEMKRFLEAIALISRDHARTPMQWSREEPNAGFSGPNAKPWFYLNESFREGINAEDESKDPNSVLNFWKEALRFRKAHKDITVYGYDFEFIDLDNKKLFSFTKKYDNKTLFAALNFSSDSIDFTIPNNSSSFKLEFGNYPRSEVDASSRTLKPWEGRIYISE
As to B2, the “increase of Tm relative to Ima3p” value in data set [1] (pH 7) turned out to be 1 °C. For the same molecule, in data set [1] (pH 7, DSF), the midpoint of thermal melting (Tm) was 39.7 °C and 39.7 ± 0.4 °C. The t1/2 in data set [2] (37 °C) is given as 26.5 ± 2.2 min; in data set [2] (40 °C) it was 16.2 ± 1.8 min; in data set [2] (42 °C), 8.5 ± 1.3 min.

B3: Ima1p: isomaltase from S. cerevisiae encoded by IMA1/YGR287C, His-tagged, purified (protein, UniProt P53051 2-589, looked up)
Oligo-1,6-glucosidase IMA1: TISSAHPETEPKWWKEATFYQIYPASFKDSNDDGWGDMKGIASKLEYIKELGADAIWISPFYDSPQDDMGYDIANYEKVWPTYGTNEDCFALIEKTHKLGMKFITDLVINHCSSEHEWFKESRSSKTNPKRDWFFWRPPKGYDAEGKPIPPNNWKSYFGGSAWTFDEKTQEFYLRLFCSTQPDLNWENEDCRKAIYESAVGYWLDHGVDGFRIDVGSLYSKVVGLPDAPVVDKNSTWQSSDPYTLNGPRIHEFHQEMNQFIRNRVKDGREIMTVGEMQHASDETKRLYTSASRHELSELFNFSHTDVGTSPLFRYNLVPFELKDWKIALAELFRYINGTDCWSTIYLENHDQPRSITRFGDDSPKNRVISGKLLSVLLSALTGTLYVYQGQELGQINFKNWPVEKYEDVEIRNNYNAIKEEHGENSEEMKKFLEAIALISRDHARTPMQWSREEPNAGFSGPSAKPWFYLNDSFREGINVEDEIKDPNSVLNFWKEALKFRKAHKDITVYGYDFEFIDLDNKKLFSFTKKYNNKTLFAALNFSSDATDFKIPNDDSSFKLEFGNYPKKEVDASSRTLKPWEGRIYISE
modifications: His tag
As to B3, the melting temperature (Tm) in data set [1] (pH 6, DSF) was 55.5 ± 0.6 °C; in data set [1] (pH 7, DSF) it was 46.6 ± 0.7 °C; in data set [1] (pH 8, DSF), 41.6 ± 0.2 °C. In addition, the “decrease of Tm on increase by one pH unit (pH 8)” value in data set [1] was 5 °C. Besides, the t1/2 was 26.1 ± 1.7 min in data set [2] (37 °C) and 17.6 ± 1.7 min in data set [2] (40 °C).
